The source of these data is ChEMBL document CHEMBL3132769, “Fragment growing to retain or alter the selectivity of anchored kinase hinge-binding fragments” (Medchemcomm, 2014).

Assay [1] concerns the target Serine/threonine-protein kinase Chk2 (Homo sapiens) (UniProt O96017). Briefly: Inhibition of human full length CHK2 expressed in baculovirus assessed as substrate phosphorylation using fluorescence-labelled peptides as substrate at 2 uM after 90 mins by microfluidic peptide phosphorylation assay.
Assay [2] addresses Aurora kinase B (Homo sapiens) (UniProt Q96GD4). Particulars: 0.1 uM.
Description: Inhibition of human full length AurB expressed in baculovirus assessed as substrate phosphorylation using fluorescence-labelled peptides as substrate at 0.1 uM after 90 mins by microfluidic peptide phosphorylation assay
Assay [3] addresses T1, Interleukin-1 receptor-associated kinase 4 (Homo sapiens) (UniProt Q9NWZ3).
T1 sequence (whole entry): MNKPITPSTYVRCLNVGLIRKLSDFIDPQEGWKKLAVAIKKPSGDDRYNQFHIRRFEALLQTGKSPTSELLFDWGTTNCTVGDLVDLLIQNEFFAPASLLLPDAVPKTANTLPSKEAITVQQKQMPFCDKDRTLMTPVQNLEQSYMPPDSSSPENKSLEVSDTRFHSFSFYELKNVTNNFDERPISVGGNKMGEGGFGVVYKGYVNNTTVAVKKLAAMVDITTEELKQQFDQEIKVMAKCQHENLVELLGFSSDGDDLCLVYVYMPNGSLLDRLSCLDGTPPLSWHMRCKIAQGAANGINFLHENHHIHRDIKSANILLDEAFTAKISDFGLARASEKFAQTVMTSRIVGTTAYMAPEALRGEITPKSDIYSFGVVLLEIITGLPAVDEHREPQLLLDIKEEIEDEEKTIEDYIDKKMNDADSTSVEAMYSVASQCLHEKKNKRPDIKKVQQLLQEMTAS
Briefly: Inhibition of human IRAK4 catalytic domain expressed in baculovirus assessed as substrate phosphorylation using fluorescence-labelled peptides as substrate at 0.2 uM after 90 mins by microfluidic peptide phosphorylation assay.

In assay [4] the target is Protein kinase C beta type (Homo sapiens) (UniProt P05771). Briefly: Inhibition of human truncated PKC beta1 expressed in baculovirus assessed as substrate phosphorylation using fluorescence-labelled peptides as substrate at 0.06 uM after 90 mins by microfluidic peptide phosphorylation assay.
Chain of Protein kinase C beta type (Homo sapiens) (P05771 2-671 limits assumed): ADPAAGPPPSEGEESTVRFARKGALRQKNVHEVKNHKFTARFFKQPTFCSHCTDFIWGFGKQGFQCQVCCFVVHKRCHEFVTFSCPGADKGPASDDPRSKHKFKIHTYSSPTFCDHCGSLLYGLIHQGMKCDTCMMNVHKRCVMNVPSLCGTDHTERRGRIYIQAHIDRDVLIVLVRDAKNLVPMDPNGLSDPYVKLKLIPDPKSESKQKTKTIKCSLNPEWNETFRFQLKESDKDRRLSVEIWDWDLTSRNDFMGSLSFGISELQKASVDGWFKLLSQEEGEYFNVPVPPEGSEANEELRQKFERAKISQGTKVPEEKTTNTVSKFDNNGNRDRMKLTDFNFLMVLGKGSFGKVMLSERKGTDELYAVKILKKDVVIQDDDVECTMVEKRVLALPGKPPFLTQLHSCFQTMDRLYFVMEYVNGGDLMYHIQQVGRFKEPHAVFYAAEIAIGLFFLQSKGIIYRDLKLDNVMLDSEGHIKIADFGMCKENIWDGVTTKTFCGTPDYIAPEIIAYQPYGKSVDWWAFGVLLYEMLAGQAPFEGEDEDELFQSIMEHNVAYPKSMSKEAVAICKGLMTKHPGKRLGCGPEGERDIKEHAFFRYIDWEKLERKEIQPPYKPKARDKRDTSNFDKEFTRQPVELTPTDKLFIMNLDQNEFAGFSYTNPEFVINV
In assay [5] the target is Mitogen-activated protein kinase 3 (Homo sapiens) (UniProt P27361). Briefly: Inhibition of human full length ERK1 expressed in Escherichia coli cell assessed as substrate phosphorylation using fluorescence-labelled peptides as substrate at 0.06 uM after 90 mins by microfluidic peptide phosphorylation assay.
Chain of Mitogen-activated protein kinase 3 (Homo sapiens) (P27361 whole entry): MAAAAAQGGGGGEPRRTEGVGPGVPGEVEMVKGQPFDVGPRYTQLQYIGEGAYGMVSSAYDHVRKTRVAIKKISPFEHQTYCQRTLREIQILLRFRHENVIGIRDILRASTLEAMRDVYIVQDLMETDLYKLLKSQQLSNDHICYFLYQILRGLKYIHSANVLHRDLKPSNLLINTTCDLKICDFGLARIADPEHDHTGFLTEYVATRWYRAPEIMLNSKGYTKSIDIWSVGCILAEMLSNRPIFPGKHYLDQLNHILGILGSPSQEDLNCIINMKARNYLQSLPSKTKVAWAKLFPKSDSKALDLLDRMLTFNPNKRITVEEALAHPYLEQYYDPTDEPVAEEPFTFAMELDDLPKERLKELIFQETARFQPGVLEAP
Assay [6] addresses Serine/threonine-protein kinase MARK2 (Homo sapiens) (UniProt Q7KZI7). Briefly: Inhibition of human full length MARK2 expressed in baculovirus assessed as substrate phosphorylation using fluorescence-labelled peptides as substrate at 9 uM after 90 mins by microfluidic peptide phosphorylation assay.
The target in assay [7] is Calcium/calmodulin-dependent protein kinase type II subunit beta (Homo sapiens) (UniProt Q13554). Briefly: Inhibition of human CAMK2 beta catalytic domain expressed in baculovirus assessed as substrate phosphorylation using fluorescence-labelled peptides as substrate at 9 uM after 90 mins by microfluidic peptide phosphorylation assay.
Chain of Calcium/calmodulin-dependent protein kinase type II subunit beta (Homo sapiens) (Q13554 whole entry, the tested form may be a part): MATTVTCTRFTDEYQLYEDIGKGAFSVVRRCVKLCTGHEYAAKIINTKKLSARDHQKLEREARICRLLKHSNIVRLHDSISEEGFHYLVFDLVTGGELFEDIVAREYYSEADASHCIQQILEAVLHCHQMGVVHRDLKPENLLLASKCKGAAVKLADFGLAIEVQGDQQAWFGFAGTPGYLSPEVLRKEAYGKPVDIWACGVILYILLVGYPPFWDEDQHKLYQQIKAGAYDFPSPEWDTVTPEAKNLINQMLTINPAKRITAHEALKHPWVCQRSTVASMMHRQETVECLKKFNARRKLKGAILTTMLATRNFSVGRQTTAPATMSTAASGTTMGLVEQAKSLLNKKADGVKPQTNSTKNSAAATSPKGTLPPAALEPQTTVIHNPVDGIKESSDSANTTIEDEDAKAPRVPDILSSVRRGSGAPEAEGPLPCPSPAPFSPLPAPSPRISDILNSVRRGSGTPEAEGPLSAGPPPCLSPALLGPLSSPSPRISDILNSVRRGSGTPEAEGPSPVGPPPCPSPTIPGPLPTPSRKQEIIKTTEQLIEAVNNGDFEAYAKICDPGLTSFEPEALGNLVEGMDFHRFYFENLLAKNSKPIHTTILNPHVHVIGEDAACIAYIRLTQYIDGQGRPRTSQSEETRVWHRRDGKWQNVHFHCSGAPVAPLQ
The target in assay [8] is MAP kinase-activated protein kinase 2 (Homo sapiens) (UniProt P49137). Nature of the assay: Inhibition of human full length MAPKAPK2 expressed in baculovirus assessed as substrate phosphorylation using fluorescence-labelled peptides as substrate at 8 uM after 90 mins by microfluidic peptide phosphorylation assay.
Chain of MAP kinase-activated protein kinase 2 (Homo sapiens) (P49137 whole entry, looked up, the tested form may be a part): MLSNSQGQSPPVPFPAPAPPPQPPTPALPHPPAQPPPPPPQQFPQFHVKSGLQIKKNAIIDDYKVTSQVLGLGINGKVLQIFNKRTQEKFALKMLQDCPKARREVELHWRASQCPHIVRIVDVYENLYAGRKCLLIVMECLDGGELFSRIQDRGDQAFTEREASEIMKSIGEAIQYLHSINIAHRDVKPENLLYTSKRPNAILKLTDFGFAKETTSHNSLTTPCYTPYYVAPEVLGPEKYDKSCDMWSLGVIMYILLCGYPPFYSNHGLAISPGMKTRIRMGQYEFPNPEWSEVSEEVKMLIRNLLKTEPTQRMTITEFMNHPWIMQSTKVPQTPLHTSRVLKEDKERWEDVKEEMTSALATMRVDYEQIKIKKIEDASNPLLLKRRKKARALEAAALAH
Assay [9] has as its target Protein kinase C eta type (Homo sapiens) (UniProt P24723). Briefly: Inhibition of human truncated PKC eta expressed in baculovirus assessed as substrate phosphorylation using fluorescence-labelled peptides as substrate at 70 uM after 90 mins by microfluidic peptide phosphorylation assay.
The target of assay [10] is Tyrosine-protein kinase Lck (Homo sapiens) (UniProt P06239). Nature of the assay: Inhibition of human full length LCK expressed in baculovirus assessed as substrate phosphorylation using fluorescence-labelled peptides as substrate at 70 uM after 90 mins by microfluidic peptide phosphorylation assay.
Chain of Tyrosine-protein kinase Lck (Homo sapiens) (P06239 2-509 limits assumed): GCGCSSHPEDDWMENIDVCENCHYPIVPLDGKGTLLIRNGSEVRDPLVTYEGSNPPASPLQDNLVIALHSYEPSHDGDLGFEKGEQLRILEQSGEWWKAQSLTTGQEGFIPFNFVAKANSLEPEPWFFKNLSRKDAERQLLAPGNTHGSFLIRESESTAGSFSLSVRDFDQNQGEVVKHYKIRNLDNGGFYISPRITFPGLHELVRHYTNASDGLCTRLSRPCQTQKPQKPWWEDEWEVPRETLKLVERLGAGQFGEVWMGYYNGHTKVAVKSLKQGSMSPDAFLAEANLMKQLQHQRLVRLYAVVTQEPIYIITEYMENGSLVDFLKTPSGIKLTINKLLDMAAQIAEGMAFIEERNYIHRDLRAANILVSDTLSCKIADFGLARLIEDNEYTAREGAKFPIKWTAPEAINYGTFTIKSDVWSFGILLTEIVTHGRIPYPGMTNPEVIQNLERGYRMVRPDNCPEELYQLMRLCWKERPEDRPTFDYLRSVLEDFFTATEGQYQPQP
The target of assay [11] is T2, Serine/threonine-protein kinase D3 (Homo sapiens) (UniProt O94806).
T2 sequence (whole entry): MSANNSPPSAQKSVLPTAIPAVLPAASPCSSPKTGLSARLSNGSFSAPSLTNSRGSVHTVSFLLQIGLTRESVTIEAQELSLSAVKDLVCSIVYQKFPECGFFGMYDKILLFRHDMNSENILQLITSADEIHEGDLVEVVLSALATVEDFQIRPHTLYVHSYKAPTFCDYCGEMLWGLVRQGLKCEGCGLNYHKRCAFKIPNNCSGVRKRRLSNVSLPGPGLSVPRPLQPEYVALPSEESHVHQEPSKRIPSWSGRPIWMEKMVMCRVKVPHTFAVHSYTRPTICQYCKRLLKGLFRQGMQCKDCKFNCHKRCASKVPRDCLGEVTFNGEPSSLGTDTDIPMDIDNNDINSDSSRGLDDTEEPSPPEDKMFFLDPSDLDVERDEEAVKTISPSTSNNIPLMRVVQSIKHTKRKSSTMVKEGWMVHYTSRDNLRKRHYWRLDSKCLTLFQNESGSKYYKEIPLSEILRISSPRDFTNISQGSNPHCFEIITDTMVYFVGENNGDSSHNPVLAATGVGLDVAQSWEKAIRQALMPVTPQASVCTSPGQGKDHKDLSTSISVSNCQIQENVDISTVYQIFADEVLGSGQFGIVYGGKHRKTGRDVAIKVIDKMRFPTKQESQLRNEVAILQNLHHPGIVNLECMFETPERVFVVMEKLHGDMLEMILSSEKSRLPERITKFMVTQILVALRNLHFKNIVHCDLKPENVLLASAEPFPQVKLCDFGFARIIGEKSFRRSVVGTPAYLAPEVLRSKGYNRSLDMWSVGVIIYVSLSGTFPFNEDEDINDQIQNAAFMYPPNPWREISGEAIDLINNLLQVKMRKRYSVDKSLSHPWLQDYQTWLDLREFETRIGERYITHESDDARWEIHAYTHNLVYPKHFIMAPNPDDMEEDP
Briefly: Inhibition of human full length PKD3 expressed in baculovirus assessed as substrate phosphorylation using fluorescence-labelled peptides as substrate at 1000 uM after 90 mins by microfluidic peptide phosphorylation assay.

The target of assay [12] is T3, Testis-specific serine/threonine-protein kinase 1 (Homo sapiens) (UniProt Q9BXA7).
T3 sequence (whole entry): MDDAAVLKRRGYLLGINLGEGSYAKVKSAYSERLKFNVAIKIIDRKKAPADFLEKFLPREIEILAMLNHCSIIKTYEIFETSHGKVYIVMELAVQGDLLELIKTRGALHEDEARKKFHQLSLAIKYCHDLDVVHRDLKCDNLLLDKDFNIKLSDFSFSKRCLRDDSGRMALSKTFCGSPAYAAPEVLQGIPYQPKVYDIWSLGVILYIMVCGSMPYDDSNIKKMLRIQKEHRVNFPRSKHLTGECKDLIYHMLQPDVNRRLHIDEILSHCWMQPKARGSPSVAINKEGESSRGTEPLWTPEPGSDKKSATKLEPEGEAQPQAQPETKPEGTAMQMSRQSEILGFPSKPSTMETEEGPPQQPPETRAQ
Briefly: Inhibition of human full length TSSK1 expressed in baculovirus assessed as substrate phosphorylation using fluorescence-labelled peptides as substrate at 1000 uM after 90 mins by microfluidic peptide phosphorylation assay.

Assay [13] has as its target Fibroblast growth factor receptor 3 (Homo sapiens) (UniProt P22607). Briefly: Inhibition of human FGFR3 catalytic domain expressed in baculovirus assessed as substrate phosphorylation using fluorescence-labelled peptides as substrate at 1000 uM after 90 mins by microfluidic peptide phosphorylation assay.

Chain of Serine/threonine-protein kinase MARK2 (Homo sapiens) (Q7KZI7 whole entry, the tested form may be a part): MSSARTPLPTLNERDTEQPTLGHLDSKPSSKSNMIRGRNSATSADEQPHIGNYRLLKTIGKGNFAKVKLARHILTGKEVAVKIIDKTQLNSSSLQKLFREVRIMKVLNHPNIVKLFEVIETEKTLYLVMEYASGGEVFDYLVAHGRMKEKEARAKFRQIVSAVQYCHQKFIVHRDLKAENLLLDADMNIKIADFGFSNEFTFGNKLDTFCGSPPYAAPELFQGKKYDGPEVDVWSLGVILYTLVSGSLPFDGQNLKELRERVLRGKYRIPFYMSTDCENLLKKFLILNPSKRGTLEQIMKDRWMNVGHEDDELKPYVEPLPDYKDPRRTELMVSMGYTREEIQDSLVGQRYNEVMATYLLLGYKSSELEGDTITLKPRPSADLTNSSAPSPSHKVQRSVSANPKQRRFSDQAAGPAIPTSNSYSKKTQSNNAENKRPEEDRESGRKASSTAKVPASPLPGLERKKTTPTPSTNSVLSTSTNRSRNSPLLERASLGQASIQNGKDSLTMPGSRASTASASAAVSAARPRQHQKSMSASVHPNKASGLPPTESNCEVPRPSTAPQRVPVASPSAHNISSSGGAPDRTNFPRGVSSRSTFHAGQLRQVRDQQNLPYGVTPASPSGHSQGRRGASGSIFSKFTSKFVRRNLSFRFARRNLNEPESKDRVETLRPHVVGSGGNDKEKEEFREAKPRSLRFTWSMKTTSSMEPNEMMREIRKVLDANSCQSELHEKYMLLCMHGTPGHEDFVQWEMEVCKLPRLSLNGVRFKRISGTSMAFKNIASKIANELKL
Chain of Fibroblast growth factor receptor 3 (Homo sapiens) (P22607 23-806 limits assumed): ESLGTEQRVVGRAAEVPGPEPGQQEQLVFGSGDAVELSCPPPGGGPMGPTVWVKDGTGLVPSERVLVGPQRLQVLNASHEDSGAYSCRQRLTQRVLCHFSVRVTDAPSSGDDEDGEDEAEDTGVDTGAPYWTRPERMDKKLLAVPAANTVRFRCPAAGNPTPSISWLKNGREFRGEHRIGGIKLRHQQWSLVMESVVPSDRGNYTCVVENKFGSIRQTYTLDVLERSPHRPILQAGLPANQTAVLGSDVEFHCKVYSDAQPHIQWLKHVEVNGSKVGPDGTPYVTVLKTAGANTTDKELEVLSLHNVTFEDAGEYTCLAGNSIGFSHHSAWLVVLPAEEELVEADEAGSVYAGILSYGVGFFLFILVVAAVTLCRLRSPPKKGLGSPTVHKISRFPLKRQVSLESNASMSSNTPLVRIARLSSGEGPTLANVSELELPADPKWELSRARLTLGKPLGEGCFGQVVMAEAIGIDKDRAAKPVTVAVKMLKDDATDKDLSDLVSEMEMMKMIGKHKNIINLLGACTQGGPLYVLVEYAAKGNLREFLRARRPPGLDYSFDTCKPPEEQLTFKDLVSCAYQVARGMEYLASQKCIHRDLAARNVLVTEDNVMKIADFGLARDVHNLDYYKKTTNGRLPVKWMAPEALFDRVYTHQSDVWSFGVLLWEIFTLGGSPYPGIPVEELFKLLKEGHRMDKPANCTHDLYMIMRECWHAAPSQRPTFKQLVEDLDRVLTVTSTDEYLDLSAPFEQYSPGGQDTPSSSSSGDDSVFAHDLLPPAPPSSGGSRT
Chain of Serine/threonine-protein kinase Chk2 (Homo sapiens) (O96017 whole entry): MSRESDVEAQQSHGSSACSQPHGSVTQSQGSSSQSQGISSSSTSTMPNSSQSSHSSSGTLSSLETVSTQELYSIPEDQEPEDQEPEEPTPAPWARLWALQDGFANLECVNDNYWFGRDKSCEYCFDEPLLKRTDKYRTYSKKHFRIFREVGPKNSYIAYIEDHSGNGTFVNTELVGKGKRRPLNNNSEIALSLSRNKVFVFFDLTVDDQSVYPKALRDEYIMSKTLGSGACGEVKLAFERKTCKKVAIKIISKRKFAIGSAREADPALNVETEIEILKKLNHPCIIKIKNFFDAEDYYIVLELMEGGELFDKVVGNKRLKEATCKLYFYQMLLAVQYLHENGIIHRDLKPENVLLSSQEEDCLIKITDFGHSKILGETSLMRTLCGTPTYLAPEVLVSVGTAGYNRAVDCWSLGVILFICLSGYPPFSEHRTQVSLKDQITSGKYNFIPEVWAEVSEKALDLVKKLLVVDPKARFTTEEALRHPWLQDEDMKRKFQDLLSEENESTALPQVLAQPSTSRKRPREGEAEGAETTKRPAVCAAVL

A word on the inhibition: it is the drop in the measured response relative to a control, in per cent. Turning to `NC1CCN(c2ncnc3[nH]ccc23)CC1`, the inhibition in assay [1] came out at 0%.

`C[C@H](CN(C)C)Oc1nc(Nc2cc3cccc(Cl)c3cn2)cnc1C#N` returned an inhibition in assay [2] of 0%.

Consider `Clc1ccc(C2(c3ccc(-c4ncnc5[nH]cnc45)cc3)CCNCC2)cc1`, for which the inhibition in assay [3] stood at 13%.

As for `NC1(Cc2ccc(Cl)cc2)CCN(c2ncnc3[nH]ccc23)CC1`, the inhibition in [4] stood at 3.5%; in [5], 0%.

Take `NCC1CN(c2ncnc3[nH]c4cnccc4c23)CCO1` (stereo not drawn): the values for the inhibition in assay [6] and in [7] were 73% and 4%, respectively.

Turning to `NCC1CCN(c2ncnc3[nH]ccc23)CC1`, the inhibition in assay [8] was determined as 81%.

Turning to `CNCc1ccc(-c2ncnc3[nH]cnc23)cc1`, the inhibition in assay [9] amounted to 78.5%; in assay [10], 38%.

For `c1cnc2[nH]ccc2c1`, the inhibition in assay [11] was 62.5%; in assay [12], 52.5%; in [13], 63.5%.
